Results from PubChem BioAssay (NCI).
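Method: 48-hour compound exposure of cells in 96-well plates, five concentrations, linear interpolation of endpoints. Here, GI50 denotes the concentration required for 50% inhibition of growth. TGI: total growth inhibition.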

How the values were obtained:
Assay in all cases: NCI anticancer screen, dose series, 48 h
TK-10 renal = test system: TK-10 renal
NCI/ADR-RES ovarian = test system: NCI/ADR-RES ovarian
NCI-H226 lung = test system: NCI-H226 lung
A498 renal = test system: A498 renal
SF-539 CNS = test system: SF-539 CNS
NCI-H23 lung = test system: NCI-H23 lung
MDA-MB-435 = test system: MDA-MB-435
EKVX NSCLC = test system: EKVX NSCLC
T-47D breast = test system: T-47D breast
SNB-19 CNS = test system: SNB-19 CNS
OVCAR-4 ovarian = test system: OVCAR-4 ovarian
HS 578T breast = test system: HS 578T breast
NCI-H460 lung = test system: NCI-H460 lung
HOP-92 NSCLC = test system: HOP-92 NSCLC
KM12 colon = test system: KM12 colon
SW-620 colon = test system: SW-620 colon
HCT-15 colon = test system: HCT-15 colon
SNB-75 CNS = test system: SNB-75 CNS
UACC-257 melanoma = test system: UACC-257 melanoma
BT-549 breast = test system: BT-549 breast
HOP-62 NSCLC = test system: HOP-62 NSCLC
SK-OV-3 ovarian = test system: SK-OV-3 ovarian
SK-MEL-28 melanoma = test system: SK-MEL-28 melanoma
HT29 colon = test system: HT29 colon
LOX IMVI melanoma = test system: LOX IMVI melanoma
A549 NSCLC = test system: A549 NSCLC
SR leukemia = test system: SR leukemia
MOLT-4 leukemia = test system: MOLT-4 leukemia
MDA-MB-231 breast = test system: MDA-MB-231 breast
SF-295 CNS = test system: SF-295 CNS
OVCAR-5 ovarian = test system: OVCAR-5 ovarian
UACC-62 melanoma = test system: UACC-62 melanoma
DU-145 prostate = test system: DU-145 prostate
HL-60(TB) leukemia = test system: HL-60(TB) leukemia
U251 CNS = test system: U251 CNS
M14 melanoma = test system: M14 melanoma
CAKI-1 renal = test system: CAKI-1 renal
OVCAR-3 ovarian = test system: OVCAR-3 ovarian
MALME-3M melanoma = test system: MALME-3M melanoma
COLO 205 colon = test system: COLO 205 colon
HCC-2998 colon = test system: HCC-2998 colon
NCI-H522 lung = test system: NCI-H522 lung
OVCAR-8 ovarian = test system: OVCAR-8 ovarian
PC-3 prostate = test system: PC-3 prostate
SF-268 CNS = test system: SF-268 CNS
RXF 393 renal = test system: RXF 393 renal
786-0 renal = test system: 786-0 renal
ACHN renal = test system: ACHN renal
SK-MEL-5 melanoma = test system: SK-MEL-5 melanoma
SK-MEL-2 melanoma = test system: SK-MEL-2 melanoma
HCT-116 colon = test system: HCT-116 colon
SN12C renal = test system: SN12C renal
MCF7 breast = test system: MCF7 breast
IGROV1 ovarian = test system: IGROV1 ovarian
UO-31 renal = test system: UO-31 renal

Cc1ccc(/C=C/C(=O)c2ccc(F)cc2)s1
GI50 (TK-10 renal): 1.84 µM
TGI (TK-10 renal): 4.33 µM
GI50 (NCI/ADR-RES ovarian): 3.68 µM
TGI (NCI/ADR-RES ovarian): 17.6 µM
GI50 (NCI-H226 lung): 10.4 µM
TGI (NCI-H226 lung): 24 µM
GI50 (A498 renal): 2.69 µM
TGI (A498 renal): 11.1 µM
GI50 (SF-539 CNS): 3.56 µM
TGI (SF-539 CNS): 10.2 µM
GI50 (NCI-H23 lung): 3.67 µM
TGI (NCI-H23 lung): 16.5 µM
GI50 (MDA-MB-435): 1.77 µM
TGI (MDA-MB-435): 3.7 µM
GI50 (EKVX NSCLC): 5.83 µM
TGI (EKVX NSCLC): 20.3 µM
GI50 (T-47D breast): 4.71 µM
TGI (T-47D breast): 23.5 µM
GI50 (SNB-19 CNS): 11.3 µM
TGI (SNB-19 CNS): 24.4 µM
GI50 (OVCAR-4 ovarian): 11.7 µM
TGI (OVCAR-4 ovarian): 29.8 µM
GI50 (HS 578T breast): 3.35 µM
TGI (HS 578T breast): 9.7 µM
GI50 (NCI-H460 lung): 3.24 µM
TGI (NCI-H460 lung): 10.6 µM
GI50 (HOP-92 NSCLC): 1.6 µM
TGI (HOP-92 NSCLC): 3.4 µM
GI50 (KM12 colon): 2.75 µM
TGI (KM12 colon): 7.52 µM
GI50 (SW-620 colon): 1.96 µM
TGI (SW-620 colon): 3.99 µM
GI50 (HCT-15 colon): 4.14 µM
TGI (HCT-15 colon): 18.4 µM
GI50 (SNB-75 CNS): 13.4 µM
TGI (SNB-75 CNS): 26.5 µM
GI50 (UACC-257 melanoma): 3.33 µM
TGI (UACC-257 melanoma): 14.1 µM
GI50 (BT-549 breast): 3.02 µM
TGI (BT-549 breast): 8.49 µM
GI50 (HOP-62 NSCLC): 14.2 µM
TGI (HOP-62 NSCLC): 28 µM
GI50 (SK-OV-3 ovarian): 15.4 µM
TGI (SK-OV-3 ovarian): 37.9 µM
GI50 (SK-MEL-28 melanoma): 2.94 µM
TGI (SK-MEL-28 melanoma): 7.31 µM
GI50 (HT29 colon): 2.09 µM
TGI (HT29 colon): 4.11 µM
GI50 (LOX IMVI melanoma): 1.87 µM
TGI (LOX IMVI melanoma): 3.59 µM
GI50 (A549 NSCLC): 4.22 µM
TGI (A549 NSCLC): 17.6 µM
GI50 (SR leukemia): 2.86 µM
TGI (SR leukemia): 20 µM
GI50 (MOLT-4 leukemia): 3.39 µM
TGI (MOLT-4 leukemia): > 100 µM
GI50 (MDA-MB-231 breast): 10.2 µM
TGI (MDA-MB-231 breast): 24 µM
GI50 (SF-295 CNS): 5.38 µM
TGI (SF-295 CNS): 18.8 µM
GI50 (OVCAR-5 ovarian): 5.39 µM
TGI (OVCAR-5 ovarian): 18.6 µM
GI50 (UACC-62 melanoma): 6.86 µM
TGI (UACC-62 melanoma): 21.3 µM
GI50 (DU-145 prostate): 3.41 µM
TGI (DU-145 prostate): 11.2 µM
GI50 (HL-60(TB) leukemia): 2.26 µM
TGI (HL-60(TB) leukemia): 7.22 µM
GI50 (U251 CNS): 2.85 µM
TGI (U251 CNS): 11.2 µM
GI50 (M14 melanoma): 7.89 µM
TGI (M14 melanoma): 26.7 µM
GI50 (CAKI-1 renal): 1.78 µM
TGI (CAKI-1 renal): 3.72 µM
GI50 (OVCAR-3 ovarian): 1.8 µM
TGI (OVCAR-3 ovarian): 3.29 µM
GI50 (MALME-3M melanoma): 1.74 µM
TGI (MALME-3M melanoma): 3.74 µM
GI50 (COLO 205 colon): 6.07 µM
TGI (COLO 205 colon): 19.9 µM
GI50 (HCC-2998 colon): 2.2 µM
TGI (HCC-2998 colon): 5.14 µM
GI50 (NCI-H522 lung): 1.71 µM
TGI (NCI-H522 lung): 3.57 µM
GI50 (OVCAR-8 ovarian): 2.74 µM
TGI (OVCAR-8 ovarian): 8.72 µM
GI50 (PC-3 prostate): 2.64 µM
TGI (PC-3 prostate): 7.11 µM
GI50 (SF-268 CNS): 2.19 µM
TGI (SF-268 CNS): 4.91 µM
GI50 (RXF 393 renal): 1.82 µM
TGI (RXF 393 renal): 4.04 µM
GI50 (786-0 renal): 3.41 µM
TGI (786-0 renal): 14.1 µM
GI50 (ACHN renal): 2.26 µM
TGI (ACHN renal): 4.52 µM
GI50 (SK-MEL-5 melanoma): 12.2 µM
TGI (SK-MEL-5 melanoma): 24.9 µM
GI50 (SK-MEL-2 melanoma): 4.35 µM
TGI (SK-MEL-2 melanoma): 15.6 µM
GI50 (HCT-116 colon): 1.86 µM
TGI (HCT-116 colon): 3.37 µM
GI50 (SN12C renal): 6.47 µM
TGI (SN12C renal): 19.8 µM
GI50 (MCF7 breast): 3.66 µM
TGI (MCF7 breast): 16.9 µM
GI50 (IGROV1 ovarian): 2.17 µM
TGI (IGROV1 ovarian): 5.25 µM
GI50 (UO-31 renal): 1.69 µM
TGI (UO-31 renal): 4.04 µM
